# Columns and labels:
# [1] = tested on: zebrafish; test: Zebrafish behavioral parameter measurement (Danio Vision/Ethovision) with cluster analysis against library of Suvorexant and Imipramine; format: in vivo, MieKomachi 002 Line 8 dpf; details: 8beta 10 μM; estimated from similarity to Suvorexant
# Procedure: 0.3×Danieau's solution (19.3 mM NaCl, 0.23 mM KCl, 0.23 mM MgSO4, 0.2 mM Ca(NO3)2, 1.7 mM HEPES, pH 7.2) is used as a water bath, and a 0.1% DMSO-containing water bath is used.
# Zebrafish is prepared by growing it under the following conditions to 8 dpf.
# Zebrafish: MieKomachi 002 Line 8 dpf
# For each substance of known action, the reagent in which the substance was dissolved in the water bath and adjusted at a concentration of 1 μM was prepared.
# (1) Add 1 ml of the water bath to each well of a 48-well plate. Transfer one zebrafish (8 dpf) per well thereto and adjust the temperature to 28° C. and maintain the temperature for from 30 minutes to 1 hour. […]
# (§1) The repetition of light and dark periods with cycled of a light period for 3 hours (period L1)—a dark period for 10 hours (period D)—a light period for 11 hours (period L2) is performed and the behavior of zebrafish is recorded for 24 hours. […]
# (§2) For each class of mobility states, the indicators DMF, IZF, DTZ, and TA are measured. […]
# (§3) (2) Store the measured behavioral parameters as raw data of the following forms. • Type of reagent (any of the reagents prepared in [Preparation of reagents for production of library] or control) • Mobility state (95 to 65 (high speed), 65 to 35 (moderate speed), or 35 to 05 (low speed)) • Repetition of light and dark periods (L1, D, or L2) • Indicator (DMF, IZF, DTZ, or TA) […]
# [2] = tested on: nfi13-6; test: Zebrafish oligo-DNA microarray gene expression with cluster analysis together with behavioral data (8beta vs library); format: in vivo, MieKomachi 002 Line 8 dpf; details: 8beta 10 μM; nfi13-6 clusters with H-, M-, L-DMT D, L1, L2
# Procedure: (5) Subsequently, link the administration of the substance of known action and the change in expression levels of genes using microarray experiments.
# (§4) The microarray experiments can be performed using Zebrafish oligo-DNA micro array Ver.3.0 manufactured by Agilent Technologies, Inc. according to protocol.
# Based on array data obtained by this microarray experiment, the normalization of the data in the arrays is performed in the procedure described above using software in Gene Springs.
# (3) Link the administration of 8beta and the change in expression levels of genes using microarray experiments.
# The microarray experiments can be performed using zebrafish oligo-DNA micro array Ver.3.0 manufactured by Agilent Technologies, Inc. according to protocol.
# (§5) Based on array data obtained by this microarray experiment, the normalization of the data in the arrays is performed in the procedure described above using software in Gene Springs and data among arrays are normalized by a method using the Z score.
# Processing of statistically matching and analyzing the numerical data for Suvorexant and Imipramine recorded in the library and the numerical data with the administration of 8beta was conducted by the cluster analysis as follows. […]
# [3] = tested on: zebrafish; test: Zebrafish behavioral parameter measurement (Danio Vision/Ethovision) with cluster analysis against library of Diazepam and Haloperidol; format: in vivo, Zebrafish (Danio rerio), AB Line 6 dpf; details: EGCG 0.003 mg/mL; estimated from similarity to Diazepam
# Procedure: 0.3×Danieau's solution (19.3 mM NaCl, 0.23 mM KCl, 0.23 mM MgSO4, 0.2 mM Ca(NO3)2, 1.7 mM HEPES, pH 7.2) is used as a water bath.
# Zebrafish is prepared by growing it under the following conditions to 6 dpf.
# For each substance of known action, the reagent in which the substance was dissolved in the water bath and adjusted at a concentration of 10 μM was prepared.
# (1) Add 1 ml of the water bath to each well of a 48-well plate. Transfer one zebrafish (6 dpf) per well thereto and adjust the temperature to 28° C. and maintain the temperature for from 30 minutes to 1 hour.
# (2) Remove the liquid in the 48-well plate with a pipette and then add 1 ml/well of any of the reagents. […]
# as §1, §2, §3
# [4] = tested on: per1b; test: Zebrafish oligo-DNA microarray gene expression with cluster analysis together with behavioral data (EGCG vs library); format: in vivo, Zebrafish (Danio rerio), AB Line 6 dpf; details: EGCG 0.003 mg/mL; per1b clusters with L-DMT D, L-DMT L1, L-DMT L2
# Procedure: This can be done by citing array data of Diazepam (GSE23157) and Haloperidol (GSE89780) from a public DB (Geo Datasets).
# Based on these array data, the normalization of the data in the arrays is performed in the procedure described above using software in Gene Springs and data among arrays are normalized by a method using the Z score.
# (3) Link the administration of EGCG and the change in expression levels of genes using microarray experiments.
# as §4, §5
# Processing of statistically matching and analyzing the numerical data for Diazepam and Haloperidol recorded in the library and the numerical data with the administration of EGCG was conducted by the cluster analysis as follows.
# In the result of cluster analysis including data of change in expression levels of genes, the action and mechanism of EGCG can be estimated based on the Gene Ontrogy (GO) information of the gene expression data by paying attention on data having high correlation between EGCG and Diazepam (data clustered in close relation). […]
# [5] = tested on: zebrafish; details: modafinil given to zebrafish in bath; compared with ethanol; cited from earlier work
smiles,measurement,setting,value
"C=C1C(=O)OC2C=C(C)CCC=C(C)CC(OC(=O)/C(C)=C/CO)C12 (stereo not drawn) [8beta, 8beta-(4′-hydroxytigloyloxy)costunolide]",action estimated from closely related drug in cluster analysis,[1],sleep action
same,"gene expression data (nfi13-6), cluster analysis of change in expression levels",[2],change with correlation between 8beta and Suvorexant
"O=C(O[C@@H]1Cc2c(O)cc(O)cc2O[C@@H]1c1cc(O)c(O)c(O)c1)c1cc(O)c(O)c(O)c1 [EGCG, epigallocatechin gallate]",action estimated from closely related drug in cluster analysis,[3],sedative action
same,"gene expression data (per1b), cluster analysis of change in expression levels",[4],change with correlation between EGCG and Diazepam
NC(=O)C[S+]([O-])C(c1ccccc1)c1ccccc1 (centres unmarked) [modafinil],action suggested by behavioral analysis of zebrafish,[5],antianxiety action
